Laboratory results from patent publication US4145296A, “Weather-durable aqueous fire retardant stabilized against gelation” (priority 1977, dated 1979).
Read-outs that look alike come from different tables or passages of the source.

Assays:
[1] = pH of the aqueous dispersion; type: physicochemical; conditions: for Initial Dispersion pH: additive at 3 percent weight in Control dispersion; for pH (MEA At 3%): 3% MEA
[2] = for Viscosity in centipoises at 1 Hr. / Viscosity in centipoises at 4 Hrs. / Viscosity in centipoises at 0 / Viscosity in centipoises at 6 Min. / Viscosity in centipoises at 21-28 Hrs.: additive at 3 percent weight; for gel inhibition / stabilization of aqueous dispersion (in words): conclusion from Tables II and III
[3] = thermodynamic; cited from earlier work

Structure (SMILES) | Initial Dispersion pH [1] | Viscosity in centipoises at 1 Hr. ([2]; 1 Hr.) [centipoises] | Viscosity in centipoises at 4 Hrs. ([2]; 4 Hrs.) [centipoises] | Viscosity in centipoises at 0 ([2]; time 0) [centipoises] | Viscosity in centipoises at 6 Min. ([2]; 6 Min.) [centipoises] | also measured
CC(O)CN(CC(C)O)CC(C)O (stereo not shown) [Triisopropanolamine] |  |  |  |  |  | pKa at 25° C. [3]: 7.86
N [Ammonium hydroxide] |  | 550 | 575 | 400 | 400 | Viscosity in centipoises at 21-28 Hrs. ([2]; 21-28 Hrs.): 750 centipoises; gel inhibition / stabilization of aqueous dispersion (in words) [2]: good stabilization results
NCCO [Monoethanolamine, 2-aminoethanol] |  |  |  |  |  | pH (MEA At 3%) ([1]; 1 Hr.): 9.1; pH (MEA At 3%) ([1]; 4 Hrs.): 9.1; pH (MEA At 3%) ([1]; 6 Min.): 9.2; pH (MEA At 3%) ([1]; 21-28 Hrs.): 8.7; pH (MEA At 3%) ([1]; time 0): 9.3; Viscosity with Monoethanolamine (MEA) ([2]; 1.5% MEA in Control dispersion, time 0): 610 Centipoises; Viscosity with Monoethanolamine (MEA) ([2]; 1.5% MEA, 1 Hr.): 760 Centipoises; Viscosity with Monoethanolamine (MEA) ([2]; 1.5% MEA, 4 Hrs.): 1125 Centipoises; Viscosity with Monoethanolamine (MEA) ([2]; 1.5% MEA, 6 Min.): 625 Centipoises; Viscosity with Monoethanolamine (MEA) ([2]; 2% MEA in Control dispersion, time 0): 650 Centipoises; Viscosity with Monoethanolamine (MEA) ([2]; 2% MEA, 1 Hr.): 750 Centipoises; Viscosity with Monoethanolamine (MEA) ([2]; 2% MEA, 4 Hrs.): 925 Centipoises; Viscosity with Monoethanolamine (MEA) ([2]; 2% MEA, 6 Min.): 700 Centipoises; Viscosity with Monoethanolamine (MEA) ([2]; 3% MEA in Control dispersion, time 0): 625 Centipoises; Viscosity with Monoethanolamine (MEA) ([2]; 3% MEA, 1 Hr.): 700 Centipoises; Viscosity with Monoethanolamine (MEA) ([2]; 3% MEA, 4 Hrs.): 750 Centipoises; Viscosity with Monoethanolamine (MEA) ([2]; 3% MEA, 6 Min.): 700 Centipoises; Viscosity with Monoethanolamine (MEA) ([2]; 3% MEA, 21-28 Hrs.): 1150 Centipoises
O.O.O.O.O.O.O.O.O.O.O.O.O=P([O-])([O-])[O-].[Na+].[Na+].[Na+] [Trisodium phosphate . 12H2 O] | 7.7 | 850 | 1500 | 450 | 600 | 
N.N.O=C(O)O [Ammonium carbonate] |  |  |  |  |  | Viscosity in centipoises at 1 Hr. ([2]; 1 Hr., listed as Ammonium carbonate (20%)): 850 centipoises; Viscosity in centipoises at 1 Hr. ([2]; 1 Hr., listed as Ammonium carbonate (100%)): 525 centipoises; Viscosity in centipoises at 4 Hrs. ([2]; 4 Hrs., listed as Ammonium carbonate (20%)): 1900 centipoises; Viscosity in centipoises at 4 Hrs. ([2]; 4 Hrs., listed as Ammonium carbonate (100%)): 800 centipoises; Viscosity in centipoises at 6 Min. ([2]; 6 Min., listed as Ammonium carbonate (20%)): 575 centipoises; Viscosity in centipoises at 6 Min. ([2]; 6 Min., listed as Ammonium carbonate (100%)): 350 centipoises; Viscosity in centipoises at 21-28 Hrs. ([2]; 21-28 Hrs.): gel; Viscosity in centipoises at 0 ([2]; time 0, listed as Ammonium carbonate (20%)): 475 centipoises; Viscosity in centipoises at 0 ([2]; time 0, listed as Ammonium carbonate (100%)): 300 centipoises; longer term storage of the aqueous dispersion (in words) ([2]; longer term storage): evidence of polymerization and gas evolution
NCCN [Ethylenediamine, diaminoethane] |  | 525 | 500 | 450 | 500 | gel inhibition / stabilization of aqueous dispersion (in words) [2]: superior gel inhibitors; pKa at 25° C. [3]: greater than 8.0
CN(C)C=O [Dimethyl formamide] |  | 900 | 3100 | 475 | 500 | 
CCN1CCOCC1 [N-Ethylmorpholine] |  |  |  |  |  | pKa at 25° C. [3]: 7.67
[K+].[OH-] [Potassium hydroxide] |  |  |  |  |  | Viscosity in centipoises at 21-28 Hrs. ([2]; 21-28 Hrs.): 1450 centipoises
C1CCNCC1 [Piperidine] | 9.9 | 725 | 800 | 600 | 650 | 

Further lines, with some results ahead:

Initial Dispersion pH [1] | Viscosity in centipoises at 1 Hr. ([2]; 1 Hr.) [centipoises] | Viscosity in centipoises at 4 Hrs. ([2]; 4 Hrs.) [centipoises] | Viscosity in centipoises at 0 ([2]; time 0) [centipoises] | Viscosity in centipoises at 6 Min. ([2]; 6 Min.) [centipoises] | Structure (SMILES) | also measured
9.0 | 750 | 875 | 600 |  | OCCNCCO [Diethanolamine] | 
8.7 | 725 | 800 | 550 | 525 | C1COCCN1 [Morpholine, tetrahydro-p-oxazine] | Viscosity in centipoises at 21-28 Hrs. ([2]; 21-28 Hrs.): 2700 centipoises
 | 900 | 1300 | 500 | 600 | O=P(O)(O)OP(=O)(O)O [Tetrasodium pyrophosphate . 10H2 O] | 
7.0 | 975 | 2100 | 500 | 600 | O.O.O.O.O.O.O.O=P([O-])([O-])O.[Na+].[Na+] [Disodium phosphate . 7H2 O] | 
6.7 | 950 | 2000 | 500 | 550 | C1N2CN3CN1CN(C2)C3 [Hexamethylene tetramine] | 
7.2 | 875 | 1900 | 425 | 550 | O=P([O-])([O-])O.[Na+].[Na+] [Disodium phosphate anhydrous] | 
6.6 | 800 | 1800 | 600 | 650 | NC(N)=O [Urea] | 
